Tests used:
[1] = molecular target: T1, recombinant human ALKBH2 protein (Homo sapiens, UniProt Q6NS38); test: Fe; type: biochemical; settings: for change of repair efficiency with increasing Fe(II) ion: rhein 50 μM
T1 sequence (Q6NS38 1-261): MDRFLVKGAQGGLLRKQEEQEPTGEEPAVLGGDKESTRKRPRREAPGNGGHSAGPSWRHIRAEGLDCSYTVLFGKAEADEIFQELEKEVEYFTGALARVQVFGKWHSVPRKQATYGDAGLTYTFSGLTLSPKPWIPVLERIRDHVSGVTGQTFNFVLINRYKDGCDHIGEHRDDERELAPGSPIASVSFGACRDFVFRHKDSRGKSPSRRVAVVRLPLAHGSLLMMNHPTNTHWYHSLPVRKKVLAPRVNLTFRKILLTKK

[2] = molecular target: T1, recombinant human ALKBH2 protein; test: α-ketoglutarate competitor test: ALKBH2 repair with varying αKG and fixed Fe; type: biochemical; settings: for change of repair efficiency with increasing αKG: Fe(II) 10 μM, rhein 50 μM, compound 7 2 μM

Compound | change of repair efficiency with increasing Fe(II) ion ([1]; Fe(II) 5 to 80 μM, αKG 93 μM) | repair ratio ([2]; 50 μM rhein, 50 μM αKG, Fe(II) fixed at 10 μM) | change of repair efficiency with increasing αKG ([2]; αKG 50 to 800 μM) | repair efficiency ([1]; 50 μM rhein, Fe(II) 5 to 80 μM, αKG fixed at 93 μM) | repair efficiency ([2]; 2 μM compound, αKG 50 to 800 μM, Fe(II) kept at 10 μM) | reactivity (repair) ([1]; 5 μM Fe(II) ion, αKG kept at 93 μM) | repair efficiency ([1]; Fe(II) ion concentration increased up to 80 μM, αKG 93 μM, control ~95% repair)
O=C(O)c1cc(O)c(O)c(O)c1 [compound 2, gallic acid] | recovered in a concentration-dependent manner | – | – | – | – | – | –
O=C(OC[C@H]1O[C@@H](OC(=O)c2cc(O)c(O)c(O)c2)[C@H](OC(=O)c2cc(O)c(O)c(O)c2)[C@@H](OC(=O)c2cc(O)c(O)c(O)c2)[C@@H]1OC(=O)c1cc(O)c(O)c(O)c1)c1cc(O)c(O)c(O)c1 [compound 5, pentagalloyl glucose] | recovered in a concentration-dependent manner | – | – | – | – | – | –
O=C(O)c1cc(O)c2c(c1)C(=O)c1cccc(O)c1C2=O [rhein, Rhein, reference compound] | no significant change | 30% | recovered in a concentration-dependent manner | around 36% | – | – | –
tannic acid [compound 7] | restored in a concentration-dependent manner | – | did not vary significantly | – | ~ 25% | 5% | up to 60%
